Experimental data as given in ChEMBL document CHEMBL1201862, “PubChem BioAssay data set” (2004).
Several values for one entry are separate records, joined by “and”; a condition that tells them apart may be missing. Equal values may be shown once.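 Cells were grown in 96-well plates and exposed to each compound for 48 hours at five concentrations; endpoints were interpolated linearly between bracketing concentrations, or set to the highest concentration if not reached. The concentration for 50% growth inhibition is given as GI50.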 Activity calls are given as the source filed them. Rule as the data show it: active = GI50 up to about 1.1 µM and inactive = higher.

How the values were obtained:
Test in all cases: NCI tumour cell line growth inhibition, 48 h
[1] = test system: NCI-H460
[2] = test system: SN12C
[3] = test system: SW-620
[4] = test system: UACC-257
[5] = test system: LOX IMVI
[6] = test system: IGROV-1
[7] = test system: OVCAR-5
[8] = test system: NCI-H23
[9] = test system: SNB-19
[10] = test system: A498
[11] = test system: HCT-15
[12] = test system: MCF7
[13] = test system: MOLT-4
[14] = test system: RPMI-8226
[15] = test system: DU-145
[16] = test system: HOP-92
[17] = test system: CAKI-1
[18] = test system: U-251
[19] = test system: OVCAR-3
[20] = test system: SR
[21] = test system: KM12
[22] = test system: MDA-N
[23] = test system: HCC 2998
[24] = test system: RXF 393
[25] = test system: SF-268
[26] = test system: EKVX
[27] = test system: CCRF-CEM
[28] = test system: M14
[29] = test system: SK-MEL-5
[30] = test system: HOP-62
[31] = test system: PC-3
[32] = test system: SF-295
[33] = test system: MDA-MB-435
[34] = test system: Hs-578T
[35] = test system: UO-31
[36] = test system: SK-MEL-28
[37] = test system: 786-0
[38] = test system: ACHN
[39] = test system: COLO 205
[40] = test system: K562
[41] = test system: OVCAR-4
[42] = test system: A549
[43] = test system: UACC-62
[44] = test system: HCT-116
[45] = test system: NCI-H522
[46] = test system: OVCAR-8
[47] = test system: SF-539
[48] = test system: Malme-3M
[49] = test system: NCI/ADR-RES
[50] = test system: MDA-MB-231
[51] = test system: SK-MEL-2
[52] = test system: HT-29
[53] = test system: SK-OV-3
[54] = test system: T47D
[55] = test system: SNB-75
[56] = test system: NCI-H226
[57] = test system: HL-60

For `Cc1cccc(Nc2cn(CCOc3ccccc3)c(=O)n(CCOc3ccccc3)c2=O)c1`, the GI50 [1] was > 100 µM (inactive), the GI50 [2] was > 100 µM (inactive) and the GI50 [3] was > 100 µM (inactive). For the same compound, the GI50 [4] was > 100 µM (inactive), the GI50 [5] was > 100 µM (inactive) and the GI50 [6] was 23.3 µM (inactive). The GI50 [7] was > 100 µM (inactive), the GI50 [8] was > 100 µM (inactive) and the GI50 [9] was > 100 µM (inactive). For the same compound, the GI50 [10] was > 100 µM (inactive), the GI50 [11] was over 100 µM and the GI50 [12] was > 100 µM (inactive). The GI50 [13] was > 100 µM (inactive), the GI50 [14] was 67.5 µM (inactive) and the GI50 [15] was > 100 µM (inactive). For the same compound, the GI50 [16] was 56.2 µM (inactive), the GI50 [17] was > 100 µM (inactive) and the GI50 [18] was > 100 µM (inactive). The GI50 [19] was > 100 µM (inactive), the GI50 [20] was > 100 µM (inactive) and the GI50 [21] was > 100 µM (inactive). The GI50 [22] was > 100 µM (inactive), the GI50 [23] was > 100 µM (inactive) and the GI50 [24] was > 100 µM (inactive). For the same compound, the GI50 [25] was > 100 µM (inactive), the GI50 [26] was 2.54 µM (inactive) and the GI50 [27] was > 100 µM (inactive). The GI50 [28] was > 100 µM (inactive), the GI50 [29] was > 100 µM (inactive) and the GI50 [30] was > 100 µM (inactive). For the same compound, the GI50 [31] was > 100 µM (inactive), the GI50 [32] was > 100 µM (inactive) and the GI50 [33] was > 100 µM (inactive). For the same compound, the GI50 [34] was > 100 µM (inactive), the GI50 [35] was > 100 µM (inactive) and the GI50 [36] was > 100 µM (inactive). The GI50 [37] was > 100 µM (inactive), the GI50 [38] was > 100 µM (inactive) and the GI50 [39] was > 100 µM (inactive). The GI50 [40] was > 100 µM (inactive), the GI50 [41] was > 100 µM (inactive) and the GI50 [42] was > 100 µM (inactive). The GI50 [43] was > 100 µM (inactive) and the GI50 [44] was > 100 µM (inactive).
`O=S(=O)(O)CCS` [MESNA] was tested, and the GI50 [1] was > 100 µM (inactive), the GI50 [45] was > 100 µM (inactive) and the GI50 [2] was > 100 µM (inactive). For the same compound, the GI50 [3] was > 100 µM (inactive), the GI50 [4] was > 100 µM (inactive) and the GI50 [5] was > 100 µM (inactive). For the same compound, the GI50 [46] was > 100 µM (inactive), the GI50 [47] was > 100 µM (inactive) and the GI50 [6] was > 100 µM (inactive). For the same compound, the GI50 [7] was > 100 µM (inactive), the GI50 [8] was > 100 µM (inactive) and the GI50 [9] was > 100 µM (inactive). For the same compound, the GI50 [10] was > 100 µM (inactive), the GI50 [48] was > 100 µM (inactive) and the GI50 [11] was over 100 µM. The GI50 [12] was > 100 µM (inactive), the GI50 [13] was > 100 µM (inactive) and the GI50 [49] was > 100 µM (inactive). The GI50 [15] was > 100 µM (inactive), the GI50 [16] was > 100 µM (inactive) and the GI50 [17] was > 100 µM (inactive). The GI50 [50] was > 100 µM (inactive), the GI50 [18] was > 100 µM (inactive) and the GI50 [51] was > 100 µM (inactive). The GI50 [19] was > 100 µM (inactive), the GI50 [52] was > 100 µM (inactive) and the GI50 [20] was > 100 µM (inactive). For the same compound, the GI50 [21] was > 100 µM (inactive), the GI50 [22] was > 100 µM (inactive) and the GI50 [23] was > 100 µM (inactive). The GI50 [24] was > 100 µM (inactive), the GI50 [25] was > 100 µM (inactive) and the GI50 [53] was > 100 µM (inactive). For the same compound, the GI50 [54] was > 100 µM (inactive), the GI50 [26] was > 100 µM (inactive) and the GI50 [27] was > 100 µM (inactive). The GI50 [28] was > 100 µM (inactive), the GI50 [29] was > 100 µM (inactive) and the GI50 [30] was > 100 µM (inactive). For the same compound, the GI50 [31] was > 100 µM (inactive), the GI50 [32] was > 100 µM (inactive) and the GI50 [33] was > 100 µM (inactive). The GI50 [35] was > 100 µM (inactive), the GI50 [55] was 39.7 µM (inactive) and the GI50 [36] was > 100 µM (inactive). The GI50 [37] was > 100 µM (inactive), the GI50 [56] was > 100 µM (inactive) and the GI50 [38] was > 100 µM (inactive). For the same compound, the GI50 [39] was > 100 µM (inactive), the GI50 [40] was > 100 µM (inactive) and the GI50 [41] was > 100 µM (inactive). The GI50 [42] was > 100 µM (inactive), the GI50 [43] was > 100 µM (inactive) and the GI50 [44] was > 100 µM (inactive).
`CCc1c(C)c(C#N)c(=S)n(C2OC(COC(C)=O)C(OC(C)=O)C(OC(C)=O)C2OC(C)=O)c1C` (centres undefined) was tested, and the GI50 [1] was > 100 µM (inactive), the GI50 [45] was > 100 µM (inactive) and 52.8 µM (inactive) and the GI50 [2] was > 100 µM (inactive). For the same compound, the GI50 [3] was > 100 µM (inactive), the GI50 [4] was > 100 µM (inactive) and the GI50 [5] was > 100 µM (inactive). For the same compound, the GI50 [46] was > 100 µM (inactive), the GI50 [6] was > 100 µM (inactive) and the GI50 [8] was > 100 µM (inactive). The GI50 [48] was > 100 µM (inactive), the GI50 [11] was over 100 µM and the GI50 [12] was > 100 µM (inactive). For the same compound, the GI50 [13] was > 100 µM (inactive), the GI50 [49] was > 100 µM (inactive) and the GI50 [15] was > 100 µM (inactive). For the same compound, the GI50 [17] was > 100 µM (inactive), the GI50 [51] was 13 µM (inactive) and the GI50 [19] was > 100 µM (inactive). The GI50 [52] was > 100 µM (inactive), the GI50 [20] was > 100 µM (inactive) and the GI50 [21] was > 100 µM (inactive). The GI50 [22] was > 100 µM (inactive), the GI50 [23] was > 100 µM (inactive) and the GI50 [25] was > 100 µM (inactive) and 73.5 µM (inactive). The GI50 [54] was > 100 µM (inactive), the GI50 [26] was 87.1 µM (inactive) and the GI50 [27] was > 100 µM (inactive). The GI50 [28] was 39.4 µM (inactive) and 46.2 µM (inactive), the GI50 [29] was > 100 µM (inactive) and the GI50 [33] was > 100 µM (inactive). For the same compound, the GI50 [55] was 0.0113 µM (active), the GI50 [36] was > 100 µM (inactive) and the GI50 [57] was > 100 µM (inactive). The GI50 [39] was > 100 µM (inactive), the GI50 [40] was > 100 µM (inactive) and the GI50 [41] was > 100 µM (inactive) and 80.7 µM (inactive). The GI50 [42] was 92.9 µM (inactive).
`C=CCNc1nc(C#N)c(N)s1` was tested, and the GI50 [1] was > 10 µM (inactive), the GI50 [3] was > 10 µM (inactive) and the GI50 [6] was > 10 µM (inactive). The GI50 [7] was > 10 µM (inactive), the GI50 [8] was > 10 µM (inactive) and the GI50 [48] was > 10 µM (inactive). The GI50 [12] was > 10 µM (inactive), the GI50 [13] was > 10 µM (inactive) and the GI50 [49] was > 10 µM (inactive). The GI50 [14] was > 10 µM (inactive), the GI50 [16] was > 10 µM (inactive) and the GI50 [17] was > 10 µM (inactive). The GI50 [18] was > 10 µM (inactive), the GI50 [51] was > 10 µM (inactive) and the GI50 [20] was > 10 µM (inactive). For the same compound, the GI50 [24] was > 10 µM (inactive), the GI50 [25] was > 10 µM (inactive) and the GI50 [53] was > 10 µM (inactive). For the same compound, the GI50 [54] was > 10 µM (inactive), the GI50 [27] was > 10 µM (inactive) and the GI50 [28] was > 10 µM (inactive). The GI50 [29] was > 10 µM (inactive), the GI50 [30] was > 10 µM (inactive) and the GI50 [33] was > 10 µM (inactive). For the same compound, the GI50 [55] was > 10 µM (inactive), the GI50 [36] was > 10 µM (inactive) and the GI50 [57] was > 10 µM (inactive). For the same compound, the GI50 [37] was > 10 µM (inactive), the GI50 [38] was > 10 µM (inactive) and the GI50 [39] was > 10 µM (inactive). For the same compound, the GI50 [40] was > 10 µM (inactive), the GI50 [41] was > 10 µM (inactive) and the GI50 [42] was > 10 µM (inactive). For the same compound, the GI50 [43] was > 10 µM (inactive).
